Source: patent publication US20230069586A1, “METHODS OF USING ANDROGRAPHOLIDE, ORIDONIN AND ISOLIQUIRITIGENIN AND DERIVATIVES THEREOF” (THE REGENTS OF THE UNIVERSITY OF CALIFORNIA, priority 2020, published 2023)

Assays:
[1] = test system: DEFB103 (Human β-defensin 3) mRNA expression; experiment: DEFB103 (human β-defensin 3) mRNA expression in hTCEpi cells, quantitative PCR; assay type: cell-based; settings: hTCEpi corneal epithelial cells, treated individually, 24 hours
Protocol: Telomerase immortalized human corneal epithelial cells (hTCEpi cells, passage 40-50) were grown in 6-well plates to 80-90% confluence. Cells were treated with andrographolide, oridonin, isoliquiritigenin (Selleck Chem) individually for 24 hours, at concentrations previously determined to have no effect on cellular viability based on cell morphology, MTT assay and RNA yield. Vehicle control type was based on manufacturers' diluent recommendation and concentration was equivalent to the diluent concentration in the highest treatment (andrographolide and oridonin: DMSO, isoliquiritigenin: ethanol). After 24 hours, media was aspirated from each well and washed with sterile PBS. Total RNA was extracted (GeneJet) and quantified (NanoDrop). Approximately 50 ng of total RNA from each sample was reverse transcribed and quantitative PCR was performed using […] for DEFB103 (ThermoFisher), and GAPDH specific aptamers were used as a control. Expression of DEFB103 was calculated using the 2^-ddCt method. A one-way ANOVA was performed to determine statistical significance with a post-hoc test to determine individual differences.
Separate time course experiments were performed as described above, where data points were taken at 2, 6, 12, and 24 hours.

[2] = test system: human β-defensin 3 (hBD3) peptide; experiment: hBD3 peptide expression in hTCEpi cells, ELISA of supernatant; assay type: cell-based; settings: increasing concentrations, 48 hours
Protocol: hTCEpi cells were seeded into a 6-well plate coated with FNC material and allowed to grow to 80% confluence. The cells were subsequently treated with increasing concentrations of andrographolide (10, 25, 50, 75, 100 μM), oridonin (1, 2, 5, 10, 15 μM), isoliquiritigenin (5, 10, 15, 25, 50 μM) for 48 hours, and a negative control (vehicle: DMSO or EtOH). After treatment, the supernatant was collected and 100 μl was used to quantify hBD3 peptide concentration (Defensin 3, beta (human) ELISA Kit, Phoenix Pharmaceuticals Inc) and performed in duplicate for each treatment. An hBD3 peptide standard curve was generated from the ELISA kit reagents. The concentration of each experimental well was determined from the linear regression equation generated from the absorbance values of the hBD3 standards. […] It is important to note that the majority of the AMP research fails to detect peptide concentrations from both in vitro and in vivo experiments despite observing upregulation at the mRNA level and the ability to augment antimicrobial activity of cells in either context.

Molecule	increase of human β-defensin 3 mRNA expression over vehicle control alone [1]	hBD3 peptide expression [2]
oridonin	4 fold	below the limit of detection
C=C1CC[C@@H]2[C@](C)(CO)[C@H](O)CC[C@@]2(C)[C@@H]1C/C=C1/C(=O)OC[C@H]1O [andrographolide]	360 fold	markedly upregulated in a dose-dependent manner
O=C(/C=C/c1ccc(O)cc1)c1ccc(O)cc1O [isoliquiritigenin]	9-10 fold	below the limit of detection
